# Tested on: hepatocytes
# Assay: Seq-Well scRNA-Seq of hepatocytes after APAP overdose (signature scores, DEG vs untreated)
# Assay type: in vivo, mouse
# [1] = time point A24 vs untreated (UT)
compound,measurement,setting,value
"CC(=O)Nc1ccc(O)cc1 [APAP, acetaminophen]",Psme4 pct.1,time point A24,0.58
same,Ptprf pct.1,time point A24,0.588
same,Raf13 pct.1,time point A24,0.612
same,Ranbp2 pct.1,time point A24,0.484
same,Rarres2 pct.1,time point A24,0.83
same,Rpl13 pct.1,time point A24,0.306
same,Rplp1 pct.1,time point A24,0.597
same,Rps9 pct.1,time point A24,0.519
same,Rps15 pct.1,time point A24,0.379
same,Sbno1 pct.1,time point A24,0.36
same,Sc4mol pct.1,time point A24,0.5
same,Sco2 pct.1,time point A24,0.346
same,Sec31a pct.1,time point A24,0.462
same,Selenbp1 pct.1,time point A24,0.563
same,Sh3bgrl pct.1,time point A24,0.512
same,Slc38a10 pct.1,time point A24,0.449
same,Slc39a14 pct.1,time point A24,0.495
same,Srebf1 pct.1,time point A24,0.439
same,Srp72 pct.1,time point A24,0.597
same,Srpr pct.1,time point A24,0.532
same,Stat3 pct.1,time point A24,0.459
same,Stt3b pct.1,time point A24,0.485
same,Surf4 pct.1,time point A24,0.656
same,Tmem243 pct.1,time point A24,0.407
same,Tob1 pct.1,time point A24,0.565
same,Trib1 pct.1,time point A24,0.455
same,Trip12 pct.1,time point A24,0.504
same,Txndc5 pct.1,time point A24,0.48
same,Txnrd1 pct.1,time point A24,0.564
same,Uggt1 pct.1,time point A24,0.385
same,Uqcr11 pct.1,time point A24,0.769
same,Vkorc1 pct.1,time point A24,0.38
same,Xiap pct.1,time point A24,0.504
same,Zbtb20 pct.1,time point A24,0.566
same,Adck3 avg_logFC,[1],−0.2825
same,Arhgap5 avg_logFC,[1],0.2952
same,Arhgef12 avg_logFC,[1],0.3047
same,Arl5a avg_logFC,[1],0.2648
same,Atp1a1 avg_logFC,[1],0.27
same,Atp5e avg_logFC,[1],−0.3136
same,Atp5f1 avg_logFC,[1],−0.2872
same,Atp6v1f avg_logFC,[1],−0.2529
same,Atp11c avg_logFC,[1],0.2605
same,Atp13a3 avg_logFC,[1],0.3037
same,Azin1 avg_logFC,[1],0.2701
same,Bnip3 avg_logFC,[1],−0.2928
same,Brd2 avg_logFC,[1],0.2664
same,Bzw1 avg_logFC,[1],0.2841
same,Cald1 avg_logFC,[1],0.2589
same,Caprin1 avg_logFC,[1],0.2628
same,Ces3b avg_logFC,[1],−0.2867
same,Copb2 avg_logFC,[1],0.2839
same,Copz1 avg_logFC,[1],0.2577
same,Cox7b avg_logFC,[1],−0.2674
same,Cpne3 avg_logFC,[1],0.258
same,Ctnnb1 avg_logFC,[1],0.2957
same,Cyp4a14 avg_logFC,[1],−0.3729
same,Cyp27a1 avg_logFC,[1],−0.2516
same,Ddost avg_logFC,[1],0.2504
same,Dennd5b avg_logFC,[1],0.2935
same,Deptor avg_logFC,[1],0.2606
same,Dnajb9 avg_logFC,[1],0.2586
same,Dnajb11 avg_logFC,[1],0.3154
same,Eci1 avg_logFC,[1],−0.2764
same,Edem1 avg_logFC,[1],0.2869
same,Ehhadh avg_logFC,[1],−0.2505
same,Eif4b avg_logFC,[1],0.256
same,Ell2 avg_logFC,[1],0.2881
same,Eprs avg_logFC,[1],0.3013
same,Erbb2ip avg_logFC,[1],0.2797
same,Erp44 avg_logFC,[1],0.2795
same,Esd avg_logFC,[1],−0.2538
same,Fam120a avg_logFC,[1],0.28
same,Fasn avg_logFC,[1],0.2914
same,Fcgrt avg_logFC,[1],−0.2693
same,Gch1 avg_logFC,[1],−0.2825
same,Gm23935 avg_logFC,[1],0.7213
same,Gm24245 avg_logFC,[1],0.4242
same,Golga4 avg_logFC,[1],0.2718
same,Gpam avg_logFC,[1],0.2504
same,Grlf1 avg_logFC,[1],0.295
same,Gstm3 avg_logFC,[1],−0.3186
same,H6pd avg_logFC,[1],0.2614
same,Id3 avg_logFC,[1],−0.3511
same,Ide avg_logFC,[1],0.2517
same,Iqgap2 avg_logFC,[1],0.2547
same,Ireb2 avg_logFC,[1],0.2657
same,Jak1 avg_logFC,[1],0.2541
same,Lasp1 avg_logFC,[1],0.253
same,Lgr4 avg_logFC,[1],0.269
same,Lpin2 avg_logFC,[1],0.2776
same,Macf1 avg_logFC,[1],0.2617
same,Magt1 avg_logFC,[1],0.2633
same,Man2a1 avg_logFC,[1],0.2833
same,Mbnl1 avg_logFC,[1],0.2502
same,Met avg_logFC,[1],0.2883
same,Mt1 avg_logFC,[1],−0.3482
same,Mtss1 avg_logFC,[1],0.2876
same,Nadk2 avg_logFC,[1],0.2579
same,Narf avg_logFC,[1],0.2629
same,Ndufa6 avg_logFC,[1],−0.3068
same,Ndufb6 avg_logFC,[1],−0.3064
same,Ndufc2 avg_logFC,[1],−0.308
same,Nop10 avg_logFC,[1],−0.2649
same,Nr1i3 avg_logFC,[1],−0.2821
same,Nrp1 avg_logFC,[1],0.3341
same,Osbp19 avg_logFC,[1],0.2788
same,Osbpl1a avg_logFC,[1],0.2728
same,Ostc avg_logFC,[1],0.2658
same,Pik3c2a avg_logFC,[1],0.2594
same,Plin5 avg_logFC,[1],−0.2778
same,Prdx4 avg_logFC,[1],−0.3074
same,Prdx5 avg_logFC,[1],−0.2609
same,Prkaa2 avg_logFC,[1],0.2636
same,Prox1 avg_logFC,[1],0.2663
same,Proz avg_logFC,[1],0.2632
same,Psme4 avg_logFC,[1],0.2626
same,Ptprf avg_logFC,[1],0.3071
same,Raf13 avg_logFC,[1],0.2553
same,Ranbp2 avg_logFC,[1],0.2659
same,Rarres2 avg_logFC,[1],−0.2666
same,Rpl13 avg_logFC,[1],−0.2997
same,Rplp1 avg_logFC,[1],−0.2866
same,Rps9 avg_logFC,[1],−0.314
same,Rps15 avg_logFC,[1],−0.3561
same,Sbno1 avg_logFC,[1],0.2505
same,Sc4mol avg_logFC,[1],−0.2735
same,Sco2 avg_logFC,[1],−0.2929
same,Sec31a avg_logFC,[1],0.263
same,Selenbp1 avg_logFC,[1],−0.28
same,Sh3bgrl avg_logFC,[1],0.2513
same,Slc38a10 avg_logFC,[1],0.2855
same,Slc39a14 avg_logFC,[1],0.323
same,Srebf1 avg_logFC,[1],0.2762
same,Srp72 avg_logFC,[1],0.3107
same,Srpr avg_logFC,[1],0.3052
same,Stat3 avg_logFC,[1],0.2974
same,Stt3b avg_logFC,[1],0.3194
same,Surf4 avg_logFC,[1],0.2586
same,Tmem243 avg_logFC,[1],−0.2656
same,Tob1 avg_logFC,[1],0.3129
same,Trib1 avg_logFC,[1],0.2875
same,Trip12 avg_logFC,[1],0.3283
same,Txndc5 avg_logFC,[1],0.2901
same,Uggt1 avg_logFC,[1],0.2845
same,Uqcr11 avg_logFC,[1],−0.2632
same,Vkorc1 avg_logFC,[1],−0.2974
same,Xiap avg_logFC,[1],0.2602
same,Zbtb20 avg_logFC,[1],0.3791
same,pct.1 Acsl1,time point A48A96,0.977
same,pct.1 Aldh3a2,time point A48A96,0.592
same,pct.1 Atp1a1,time point A48A96,0.701
same,pct.1 Atp5d,time point A48A96,0.866
same,pct.1 C6,time point A48A96,0.653
same,pct.1 Ces1e,time point A48A96,0.791
same,pct.1 Ctsd,time point A48A96,0.831
same,pct.1 Cyp4a12a,time point A48A96,0.509
same,pct.1 Ech1,time point A48A96,0.951
same,pct.1 F5,time point A48A96,0.881
same,pct.1 F9,time point A48A96,0.836
same,pct.1 F12,time point A48A96,0.922
same,pct.1 Fcgrt,time point A48A96,0.806
same,pct.1 Fn1,time point A48A96,0.932
same,pct.1 Ftl1,time point A48A96,0.438
same,pct.1 Gabarapl1,time point A48A96,0.917
same,pct.1 Gclm,time point A48A96,0.893
same,pct.1 Glul,time point A48A96,0.257
same,pct.1 Gm4076,time point A48A96,0.047
same,pct.1 Gm20594,time point A48A96,0.222
same,pct.1 Gsta2,time point A48A96,0.583
same,pct.1 Hadha,time point A48A96,0.895
same,pct.1 Hal,time point A48A96,0.824
same,pct.1 Hgfac,time point A48A96,0.682
same,pct.1 Hsd17b4,time point A48A96,0.943
same,pct.1 Ifitm3,time point A48A96,0.823
same,pct.1 Inmt,time point A48A96,0.935
same,pct.1 Lpgat1,time point A48A96,0.747
same,pct.1 Lpin1,time point A48A96,0.515
same,pct.1 Ndufb2,time point A48A96,0.814
same,pct.1 Park7,time point A48A96,0.902
same,pct.1 Pck1,time point A48A96,0.998
same,pct.1 Pipox,time point A48A96,0.774
same,pct.1 Ppp2r5a,time point A48A96,0.803
same,pct.1 Ptms,time point A48A96,0.857
same,pct.1 Rarres1,time point A48A96,0.327
same,pct.1 Rpl32,time point A48A96,0.766
same,pct.1 Rpl41,time point A48A96,0.304
same,pct.1 Sardh,time point A48A96,0.939
same,pct.1 Sdhd,time point A48A96,0.837
same,pct.1 Sds,time point A48A96,0.671
same,pct.1 Sec61a1,time point A48A96,0.7
same,pct.1 Serpina12,time point A48A96,0.38
same,pct.1 Sfxn1,time point A48A96,0.702
same,pct.1 Slc2a2,time point A48A96,0.716
same,pct.1 Slc37a4,time point A48A96,0.717
same,pct.1 Tmem106b,time point A48A96,0.787
same,pct.1 Ubb,time point A48A96,0.465
same,pct.1 Ubxn4,time point A48A96,0.802
same,pct.1 Upb1,time point A48A96,0.895
same,pct.1 Usmg5,time point A48A96,0.677
same,pct.1 mmu-mir-6236,time point A48A96,0.859
same,pct.1 mt-Atp6,time point A48A96,0.326

# Source: patent US20230053540A1, “TREATMENT OF LIVER INJURY” (Massachusetts Institute of Technology, priority 2019, published 2023)
